Data from US11986512B2, “Compositions and methods for cancer therapy” (Thetis Pharmaceuticals LLC, priority 2021, dated 2024).

What was measured:
[1] = tested on: Panc2 cells; test: Panc2-H7 model with or without anti-CTLA4; assay type: in vivo, C57BL/6J male mice
Experimental: To further corroborate the findings with weekly dosing of bis RvE1 Mg-di-lysinate and its efficacy in combination with immune checkpoint inhibitors (ICI), another study was conducted in the Panc2-H7 model with a different ICI. A total of twenty-four (24) C57BL/6J male mice were injected subcutaneously with 1×10e6 living Panc2 cells. Once tumors reached 200 mm^3 in size based on mean tumor volume per cohort, the mice were randomized (n=8 per group) to treatment with vehicle, bis RvE1 Mg-di-lysinate (300 ug/kg, SC, Q7D) and bis RvE1 Mg-di-lysinate+anti-CTLA-4 (4 mg/kg, i.p, first dose; 2 mg/kg i.p, Q3D following the first dose).

[2] = tested on: subcutaneous KPC tumors; test: RNAseq cell enrichment analysis of subcutaneous KPC tumors; assay type: in vivo, mice; conditions: Q6D treatment, sacrificed on Day 26, compared to placebo
Experimental: RNAseq analysis was performed on tumor samples from mice with subcutaneous KPC tumors sacrificed on Day 26 following treatment (Q6D) with bis RvE1 Mg-di-lysinate (Compound 1) compared to placebo. […] Darker color indicates increased gene expression, for various immune cells and other cells, as listed across the top of the heatmap. […] Namely, these unexpected results may be due to durable effects on the tumor microenvironment including changes in immune cell phenotype and the T-cell compartment such as T-cell priming and increased tumor-infiltrating lymphocytes.

[3] = tested on: MC-38 cells; test: MC38 model of colorectal cancer, subcutaneous tumors; assay type: in vivo, C57BL/6J male mice; conditions: 300 ug/kg, SC, single agent, P<0.05 vs placebo
Experimental: A representative compound of Formula IV, RvE1 magnesium dilysinate, was tested for efficacy in several mouse models of cancer, including the Panc2-H7 model of pancreatic cancer, the Lewis lung carcinoma (LLC) model, the MC38 model of colorectal cancer, and the B16F10 model of melanoma. These models are well established, highly tumorigenic syngeneic models in which murine cancer cell lines are injected subcutaneously (SC) into the dorsum of C57BL/6J mice. If left untreated, these tumors grow rapidly and lead to death or euthanasia, per protocol. As detailed below in Examples 1-9 and the accompanying figures, bis RvE1 Mg-di-lysinate (Compound 1) was unexpectedly effective as an anti-cancer agent in each of these model systems when administered in a less than daily (LTD) dosing regimen. […] Without being bound by any theory, the surprising efficacy of LTD dosing of resolvins in the cancer model systems described here may be the result of durable effects on the tumor microenvironment including changes in immune cell phenotype, vascularization, stromal phenotype, and antigen presentation, as well as durable effects on the T-cell compartment such as T-cell priming and increased tumor-infiltrating lymphocytes. […]

[4] = tested on: Panc2-H7 cells; test: Panc2-H7 model of pancreatic cancer, with and without anti-PD1; assay type: in vivo, C57BL/6J male mice
Experimental: A representative compound of Formula IV, RvE1 magnesium dilysinate, was tested for efficacy in several mouse models of cancer, including the Panc2-H7 model of pancreatic cancer, the Lewis lung carcinoma (LLC) model, the MC38 model of colorectal cancer, and the B16F10 model of melanoma. These models are well established, highly tumorigenic syngeneic models in which murine cancer cell lines are injected subcutaneously (SC) into the dorsum of C57BL/6J mice. If left untreated, these tumors grow rapidly and lead to death or euthanasia, per protocol. As detailed below in Examples 1-9 and the accompanying figures, bis RvE1 Mg-di-lysinate (Compound 1) was unexpectedly effective as an anti-cancer agent in each of these model systems when administered in a less than daily (LTD) dosing regimen. […] Without being bound by any theory, the surprising efficacy of LTD dosing of resolvins in the cancer model systems described here may be the result of durable effects on the tumor microenvironment including changes in immune cell phenotype, vascularization, stromal phenotype, and antigen presentation, as well as durable effects on the T-cell compartment such as T-cell priming and increased tumor-infiltrating lymphocytes.
Over the last two decades, research on checkpoint inhibitors, including anti-PD(L)1 and anti-CTLA4, has focused on T-cells as a major therapeutic target. Waldman et al., Nat Rev Immunol. 2020; 20(11):651-668. In general, the response to treatment with immune checkpoint inhibitors requires the presence of CD4+ and CD8+ T cells in the tumor microenvironment. Li et al., Biochim Biophys Acta Rev Cancer. 2020; 1874(2):188439. […] Chiurchiu et al., Sci. Transl. Med. 2016; 8:353ra111; Mizraji et al., Front Immunol. 2018; 9:785; Oner et al., Front Immunol. 2021; 12:637983. In addition, resolvins can enhance the de novo generation and function of immunosuppressive T regulatory cells, which are associated with cancer progression and resistance to immune checkpoint inhibitors. Alvarez et al., Front Immunol. 2021; 12:664756; Togashi et al., Nat Rev Clin Oncol 2019; 16, 356-371. […]

[5] = tested on: Panc2-H7 model; test: Panc2-H7 model with or without CD8 neutralizing antibody; assay type: in vivo, C57BL/6J male mice
Experimental: Based on the findings with bis RvE1 Mg-di-lysinate administered in combination with anti-PD1 in two different tumor models (i.e., Panc2-H7 and LLC), daily (QD) and weekly (Q7D) dosing of bis RvE1 Mg-di-lysinate was investigated in the Panc2-H7 model, with and without an antibody that depletes CD8+ T-cells, which play a major role in the antitumor immune response of immune checkpoint inhibitors. A total of thirty (30) C57BL/6J male mice were injected subcutaneously with 1×10e6 living […]. Once tumors reached 220-240 mm^3 in size based on mean tumor volume per cohort, the mice were randomized (n=6 per group) to treatment with vehicle, bis RvE1 Mg-di-lysinate (300 ug/kg, SC, QD or Q7D), with or without CD8 neutralizing antibody (200 ug IP Q3D). All mice were sacrificed on day 20 when the average tumor size of the placebo group exceeded 2,000 mm^3.

CC[C@@H](O)/C=C/C=C\C[C@@H](O)/C=C/C=C/C=C\[C@@H](O)CCCC(=O)O [bis RvE1 Mg-di-lysinate]
tumor volume over time ([1]; bis RvE1 Mg-di-lysinate 300 ug/kg SC Q7D + anti-CTLA-4 (4 mg/kg i.p first dose, 2 mg/kg i.p Q3D), p<0.001): significant inhibition related to both placebo and bis RvE1 Mg-di-lysinate alone
tumor volume over time ([1]; monotherapy, 300 ug/kg, SC, Q7D): significant inhibition as monotherapy compared to placebo
immune cell marker gene expression in tumors (RNAseq heatmap) [2]: increase in markers of monocytes and DC cell subset (cDCs, pDCs, and iDCs) and markers of NK, CD8+ T cells, Th1 cells, and memory T cells (CD8+ and CD4+)
tumor volume (Day 15 vs Day 0) ([3]; Q3D): effective as a single agent
tumor volume (Day 15 vs Day 0) ([3]; QD): effective as a single agent
tumor growth ([4]; double combination: bis RvE1 Mg-di-lysinate 30 ug/kg SC plus anti-PD1 8 mg/kg IP Q3D, p<0.001 vs placebo and monotherapy groups): significantly inhibited tumor growth relative to control
anti-cancer effect (tumor volume, Day 15 vs Day 0) ([4]; monotherapy, 30 ug/kg, subcutaneous injection): did not have a significant anti-cancer effect
tumor growth ([4]; triple combination of bis RvE1 Mg-di-lysinate, anti-PD1 and gemcitabine): significantly inhibited tumor growth relative to control
efficacy of weekly (Q7D) relative to daily (QD) dosing ([5]; 300 ug/kg SC, mice not receiving the neutralizing antibody): comparable and possibly superior efficacy relative to daily (QD) dosing
tumor volume over time ([5]; 300 ug/kg, SC, Q7D, without CD8 neutralizing antibody, p<0.01 vs placebo and vs same regimen + CD8 depletion): significant inhibition compared to placebo control
